Data from ChEMBL document CHEMBL1152667, “Synthesis and radiopharmacological investigation of 3-[4'-[(18)F]fluorobenzylidene]indolin-2-one as possible tyrosine kinase inhibitor” (Bioorg Med Chem, 2009).

Assays:
Type in all cases: ADME, organism-based
[1] = system: Kidney; assay: Biodistribution in Wistar rat kidney at 1.7 MBq, iv administered as single dose measured after 60 mins post-injection by gamma counting; conditions: in vivo, 1 h
[2] = Biodistribution in Wistar rat hair/skin assessed as standard uptake value at 1.7 MBq, iv administered as single dose measured after 30 mins post-injection by gamma counting; conditions: in vivo, 0.5 h
[3] = system: Adrenal gland; assay: Biodistribution in Wistar rat adrenal gland assessed as standard uptake value at 1.7 MBq, iv administered as single dose measured after 60 mins post-injection by gamma counting; conditions: in vivo, 1 h
[4] = system: Harderian gland; assay: Biodistribution in Wistar rat harderian gland assessed as standard uptake value at 1.7 MBq, iv administered as single dose measured after 30 mins post-injection by gamma counting; conditions: in vivo, 0.5 h
[5] = system: Adrenal gland; assay: Biodistribution in Wistar rat adrenal gland assessed as standard uptake value at 1.7 MBq, iv administered as single dose measured after 5 mins post-injection by gamma counting; conditions: in vivo
[6] = system: Harderian gland; assay: Biodistribution in Wistar rat harderian gland assessed as standard uptake value at 1.7 MBq, iv administered as single dose measured after 60 mins post-injection by gamma counting; conditions: in vivo, 1 h
[7] = system: Muscle tissue; assay: Biodistribution in Wistar rat muscle assessed as standard uptake value at 1.7 MBq, iv administered as single dose measured after 10 mins post-injection by gamma counting; conditions: in vivo
[8] = system: Femur; assay: Biodistribution in Wistar rat femur assessed as standard uptake value at 1.7 MBq, iv administered as single dose measured after 60 mins post-injection by gamma counting; conditions: in vivo, 1 h
[9] = system: Thymus; assay: Biodistribution in Wistar rat thymus at 1.7 MBq, iv administered as single dose measured after 5 mins post-injection by gamma counting; conditions: in vivo
[10] = system: Thymus; assay: Biodistribution in Wistar rat thymus assessed as standard uptake value at 1.7 MBq, iv administered as single dose measured after 5 mins post-injection by gamma counting; conditions: in vivo
[11] = Metabolic stability in Wistar rat blood assessed as compound remaining at 30 MBq, iv after 10 mins by radio-HPLC analysis; conditions: read-out: Stability
[12] = Biodistribution in Wistar rat brown adipose tissue assessed as standard uptake value at 1.7 MBq, iv administered as single dose measured after 60 mins post-injection by gamma counting; conditions: in vivo, 1 h
[13] = system: Muscle tissue; assay: Biodistribution in Wistar rat muscle assessed as standard uptake value at 1.7 MBq, iv administered as single dose measured after 1 min post-injection by gamma counting; conditions: in vivo
[14] = system: Spleen; assay: Biodistribution in Wistar rat spleen at 1.7 MBq, iv administered as single dose measured after 30 mins post-injection by gamma counting; conditions: in vivo, 0.5 h
[15] = system: Brain; assay: Biodistribution in Wistar rat brain at 1.7 MBq, iv administered as single dose measured after 10 mins post-injection by gamma counting; conditions: in vivo
[16] = Biodistribution in Wistar rat thyroid gland at 1.7 MBq, iv administered as single dose measured after 60 mins post-injection by gamma counting; conditions: in vivo, 1 h
[17] = system: Heart; assay: Biodistribution in Wistar rat heart assessed as standard uptake value at 1.7 MBq, iv administered as single dose measured after 1 min post-injection by gamma counting; conditions: in vivo
[18] = system: Heart; assay: Biodistribution in Wistar rat heart at 1.7 MBq, iv administered as single dose measured after 1 min post-injection by gamma counting; conditions: in vivo
[19] = system: Lung; assay: Biodistribution in Wistar rat lung at 1.7 MBq, iv administered as single dose measured after 5 mins post-injection by gamma counting; conditions: in vivo
[20] = system: Liver; assay: Biodistribution in Wistar rat liver assessed as standard uptake value at 1.7 MBq, iv administered as single dose measured after 5 mins post-injection by gamma counting; conditions: in vivo

Drug uptake [1]: 0.91 %ID
SUV [2]: 0.48%
SUV [3]: 1.11%
SUV [4]: 1.07%
SUV [5]: 5.71%
SUV [6]: 0.46%
SUV [7]: 0.69%
SUV [8]: 0.19%
Drug uptake [9]: 0.34 %ID
SUV [10]: 0.82%
remaining at 10 min [11]: 18%
SUV [12]: 0.63%
SUV [13]: 0.82%
Drug uptake [14]: 0.08 %ID
Drug uptake [15]: 1.09 %ID
Drug uptake [16]: 0.01 %ID
SUV [17]: 2.52%
Drug uptake [18]: 1.01 %ID
Drug uptake [19]: 1.02 %ID
SUV [20]: 3.74%
Compound: O=C1Nc2ccccc2/C1=C/c1ccc([18F])cc1
